Results from US20070112175A1, “Determining drug resistance” (Children's Cancer Institute Australia for Medical Research, priority 2003, published 2007).

Assays:
[1] = test system: NIH3T3 mutant γ-actin transfectant cells; experiment: Drug treatment and α-tubulin immunofluorescence of microtubules; assay type: cell-based, mouse; conditions: 10 μM, 30 min
Description: NIH3T3 mutant γ-actin transfectant cells were grown to ˜80% confluency in 4-well chamber slides (Nalge Nunc International, Naperville, Ill.) and treated with either 0.5% DMSO (vehicle control), 10 μM VLB, or 10 μM dEpoB, for 30 min, prior to immunostaining for total α-tubulin using standard methods. Epifluorescence imaging was performed using a Zeiss Axioscope 100 linked to a cooled CCD camera.

CEM/VCR R cells = experiment: Resistance of vincristine-selected subline CEM/VCR R; assay type: cell-based, Human; conditions: CEM/VCR R subline of CCRF-CEM
Text: (§1) Human T-cell acute lymphoblastic leukaemia cells, CCRF-CEM, and drug resistant sublines, CEM/VCR R (vincristine-selected) and CEM/VLB100 (vinblastine-selected), and CEM/dEpoB 1×, CEM/dEpoB 2×, CEM/dEpoB 4×, CEM/dEpoB 10×(desoxyepothilone B-selected), were maintained in RPMI 1640 containing 10% FCS as suspension cultures. The CEM/VCRR are 22,600-fold and CEM/VLB100 are 6,667-fold resistant to vincristine and vinblastine respectively. Cells were harvested for protein analysis by centrifugation at 1500 rpm for 5 min.

CEM/VLB100 cells = experiment: Resistance of vinblastine-selected subline CEM/VLB100; assay type: cell-based, Human; conditions: CEM/VLB100 subline of CCRF-CEM
Text: as §1

[2] = test system: NIH3T3 mutant γ-actin transfectant cells; experiment: Drug resistance clonogenic assay; assay type: cell-based, mouse; conditions: P<0.05
Description: DNA (1 μg) was transfected into subconfluent NIH3T3 mouse fibroblast cells using the Fugene (Roche) transfection reagent according to the manufacturer's instructions. Stable transfectants were selected in 1 mgm1^−1 G418 for 16 days. Levels of γ-actin expression were determined by immunoblotting as described above.
The ability of mutant γ-actin to confer resistance to antimicrotubule agents was determined using clonogenic assays with slight modifications. NIH3T3 mutant γ-actin transfectant cells were seeded at 100 cells/well in replicate wells of a 24-well dish containing increasing concentrations of VLB. The media was replaced after 3 days with drug-free DME/10%FCS. After a further 4 days the media was removed and colonies stained with 0.1% crystal violet. The densitometric volume of each well was determined using the Quantity One software package (Biorad) and expressed relative to the respective drug-free control cells. The concentration that kills 50% of cells (ID50) and statistical analyses were then performed. The relative resistance was determined by dividing the ID50 of each γ-actin transfectant cell line with the ID50 of the empty vector cells.

[3] = empty vector and wild type γ-actin expressing cells

Row | Structure (SMILES) | effect on cell shape and microtubule network [1, 3] | effect on cell shape and microtubule network ([1]; mutant γ-actin transfectants) | fold resistant to vincristine (CEM/VCR R cells) | fold resistant to vinblastine (CEM/VLB100 cells) | relative resistance (ID50 transfectant / ID50 empty vector) ([2]; P98L γ-actin mutant vs empty vector and wildtype γ-actin cells) | relative resistance (ID50 transfectant / ID50 empty vector) ([2]; V103L γ-actin mutant vs empty vector and wildtype γ-actin cells)
1 | C/C1=C/C[C@@H](/C(C)=C/c2csc(C)n2)OC(=O)C[C@H](O)C(C)(C)C(=O)[C@H](C)[C@@H](O)[C@@H](C)CCC1 [dEpoB, Desoxyepothilone B] | marked structural changes | microtubule network remains largely intact | – | – | – | –
2 | CC[C@]1(O)C[C@H]2CN(CCc3c([nH]c4ccccc34)[C@@](C(=O)OC)(c3cc4c(cc3OC)N(C=O)[C@H]3[C@@](O)(C(=O)OC)[C@H](OC(C)=O)[C@]5(CC)C=CCN6CC[C@]43[C@@H]65)C2)C1 [vincristine] | – | – | 22,600 fold | – | – | –
3 | CC[C@]1(O)C[C@@H]2CN(CCc3c([nH]c4ccccc34)[C@@](C(=O)OC)(c3cc4c(cc3OC)N(C)[C@H]3[C@@](O)(C(=O)OC)[C@H](OC(C)=O)[C@]5(CC)C=CCN6CC[C@]43[C@@H]65)C2)C1 [vinblastine] | marked structural changes | microtubule network remains largely intact | – | 6,667 fold | over 3 fold | over 2 fold
